Test results from US20070172957A1, “Methods of identifying anti-inflammatory macrolides” (TAISHO PHARMACEUTICAL CO., LTD., priority 2004, published 2007).

Tested on: genes predictive for the anti-inflammatory macrolide effect
Test: Genes statistically predictive of Clari response: differentially expressed with Clari but not the inactive macrolides MAA or Josa (Appendix E)
Assay type: cell-based
Source text: In the case of the above-mentioned (i) related to arachidonic acid biosynthesis, specifically, methods of the embodiment involve assaying whether a test macrolide alters biosynthesis of arachidonic acid, alters the expression or activities of enzymes involved in the biosynthesis or activation of arachidonic acid (e.g., arachidonic acid CoA synthetase, delta-6 desaturase, fatty acid elongase, and delta-5 desaturase, AA-related genes in Tables 2 and 3), or alters the expression of genes identified as predictive for the anti-inflammatory macrolide effect (Appendix E). Assays in which arachidonic acid or gene expression or enzymatic activity is detected can be carried out after contacting a cell with a test macrolide. Any cell line that secretes prostaglandin or produces arachidonic acid can be used. Epithelial and macrophages lines (e.g., A549 or THP-1) are suitable for this purpose; other cell lines can be identified by carrying out assays such as those described in the specific Examples, below. Alternatively, screening assays can be carried out after adding a test macrolide to an in vitro cell system (e.g., a cellular extract or liver microsome preparation) or an in vitro enzyme assay system.

CO[C@@H]1[C@@H](O[C@@H]2O[C@H](C)[C@@H](O[C@H]3C[C@@](C)(O)[C@@H](OC(=O)CC(C)C)[C@H](C)O3)[C@H](N(C)C)[C@H]2O)[C@@H](CC=O)C[C@@H](C)[C@@H](O)/C=C/C=C/C[C@@H](C)OC(=O)C[C@H]1OC(C)=O [josamycin]
0.95: group mean, gene APLP2 (SpotID 48530, MAA and Josa vs. Clari) | mean group, APLP2 (SpotID 48530, pooled group mean)
1.00: group mean, gene PTGER1 (SpotID 47995, MAA and Josa vs. Clari) | group mean, gene SNAPC1 (SpotID 48182, MAA and Josa vs. Clari) | group mean, gene FN1 (SpotID 48328, MAA and Josa vs. Clari) | group mean, gene FN1 (SpotID 48348, MAA and Josa vs. Clari) | group mean, gene DIP2 (SpotID 48643, MAA and Josa vs. Clari)
1.05: group mean, gene COX15 (SpotID 47951, MAA and Josa vs. Clari) | group mean, gene RPL13A (SpotID 48500, MAA and Josa vs. Clari) | mean group, RPL13A (SpotID 48500, pooled group mean) | mean group, FECH (SpotID 48654, pooled group mean)
0.90: group mean, gene SCN1B (SpotID 48121, MAA and Josa vs. Clari) | group mean, gene ARHC (SpotID 48280, MAA and Josa vs. Clari)
1.04: group mean, gene MAPK9 (SpotID 48365, MAA and Josa vs. Clari) | mean group, MAPK9 (SpotID 48365, pooled group mean) | group mean, gene CNOT2 (SpotID 48396, MAA and Josa vs. Clari) | group mean, gene HSPBP1 (SpotID 48693, MAA and Josa vs. Clari) | mean group, HSPBP1 (SpotID 48693, pooled group mean)
1.07: group mean, gene BCKDK (SpotID 47949, MAA and Josa vs. Clari)
0.98: group mean, gene SFRS7 (SpotID 48149, MAA and Josa vs. Clari) | mean group, SFRS7 (SpotID 48149, pooled group mean) | mean group, BARD1 (SpotID 48461, pooled group mean) | mean group, XBP1 (SpotID 48620, pooled group mean) | mean group, RALA (SpotID 48732, pooled group mean)
1.22: mean group, CUTL1 (SpotID 48004, pooled group mean)
0.87: group mean, gene CHK (SpotID 48672, MAA and Josa vs. Clari)
1.03: mean group, FRDA (SpotID 48137, pooled group mean) | group mean, gene CNOT2 (SpotID 48363, MAA and Josa vs. Clari) | group mean, gene USP24 (SpotID 48508, MAA and Josa vs. Clari)
0.93: mean group, RPN2 (SpotID 47988, pooled group mean) | group mean, gene CTSH (SpotID 48000, MAA and Josa vs. Clari) | group mean, gene GRB2 (SpotID 48266, MAA and Josa vs. Clari) | mean group, GRB2 (SpotID 48266, pooled group mean) | group mean, gene GCN5L1 (SpotID 48301, MAA and Josa vs. Clari) | mean group, GCN5L1 (SpotID 48301, pooled group mean)
1.21: mean group, SpotID 48486 (SpotID 48486 (gene symbol not given), pooled group mean)
1.09: group mean, gene HIF1A (SpotID 48397, MAA and Josa vs. Clari) | mean group, PPP3CB (SpotID 48717, pooled group mean)
1.12: group mean, gene DDC (SpotID 48456, MAA and Josa vs. Clari) | mean group, DDC (SpotID 48456, pooled group mean) | group mean, gene ARAF1 (SpotID 48521, MAA and Josa vs. Clari) | mean group, ARAF1 (SpotID 48521, pooled group mean)
0.86: group mean, gene BCL2L2 (SpotID 48006, MAA and Josa vs. Clari)
0.94: mean group, SRF (SpotID 48026, pooled group mean)
0.88: group mean, gene MAPK12 (SpotID 48233, MAA and Josa vs. Clari) | mean group, MAPK12 (SpotID 48233, pooled group mean)
1.08: group mean, gene ZAP3 (SpotID 48160, MAA and Josa vs. Clari) | mean group, ZAP3 (SpotID 48160, pooled group mean)
1.02: group mean, gene THBS1 (SpotID 47987, MAA and Josa vs. Clari) | mean group, THBS1 (SpotID 47987, pooled group mean) | group mean, gene OPA1 (SpotID 48192, MAA and Josa vs. Clari) | group mean, gene BAT8 (SpotID 48214, MAA and Josa vs. Clari) | group mean, gene DAXX (SpotID 48235, MAA and Josa vs. Clari) | group mean, gene SERPINB1 (SpotID 48415, MAA and Josa vs. Clari) | mean group, SERPINB1 (SpotID 48415, pooled group mean)
0.97: group mean, gene DNMT1 (SpotID 48333, MAA and Josa vs. Clari) | mean group, CCT3 (SpotID 48345, pooled group mean) | group mean, gene MGEA5 (SpotID 48411, MAA and Josa vs. Clari) | mean group, MGEA5 (SpotID 48411, pooled group mean) | group mean, gene M6PR (SpotID 48451, MAA and Josa vs. Clari) | group mean, gene MCM5 (SpotID 48470, MAA and Josa vs. Clari) | mean group, NFE2L1 (SpotID 48557, pooled group mean) | group mean, gene SDCBP (SpotID 48646, MAA and Josa vs. Clari) | mean group, SDCBP (SpotID 48646, pooled group mean) | group mean, gene SIGIRR (SpotID 48705, MAA and Josa vs. Clari) | group mean, gene P4HA1 (SpotID 48707, MAA and Josa vs. Clari) | mean group, P4HA1 (SpotID 48707, pooled group mean)
0.84: group mean, gene IKKE (SpotID 48725, MAA and Josa vs. Clari) | mean group, IKKE (SpotID 48725, pooled group mean)
1.14: mean group, MAFB (SpotID 48747, pooled group mean)
1.01: group mean, gene KIAA0323 (SpotID 48644, MAA and Josa vs. Clari) | group mean, gene KIAA0217 (SpotID 48804, MAA and Josa vs. Clari) | mean group, KIAA0217 (SpotID 48804, pooled group mean)
0.96: group mean, gene DNASE1L1 (SpotID 47950, MAA and Josa vs. Clari) | mean group, DNASE1L1 (SpotID 47950, pooled group mean) | mean group, USF2 (SpotID 47973, pooled group mean) | group mean, gene MKNK2 (SpotID 48713, MAA and Josa vs. Clari)
1.06: group mean, gene RBM3 (SpotID 48471, MAA and Josa vs. Clari)
